Source: PubChem BioAssay (NCI)
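48-hour exposure; five concentrations; linearly interpolated endpoints. TGI: concentration producing complete growth inhibition.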

Experiments:
Assay in all cases: NCI-60 cell line screen, 48 h
OVCAR-4 ovarian = test system: OVCAR-4 ovarian
UACC-62 melanoma = test system: UACC-62 melanoma
KM12 colon = test system: KM12 colon
LOX IMVI melanoma = test system: LOX IMVI melanoma
UACC-257 melanoma = test system: UACC-257 melanoma
HOP-62 NSCLC = test system: HOP-62 NSCLC
K-562 leukemia = test system: K-562 leukemia
NCI/ADR-RES ovarian = test system: NCI/ADR-RES ovarian
U251 CNS = test system: U251 CNS
SK-MEL-5 melanoma = test system: SK-MEL-5 melanoma
HS 578T breast = test system: HS 578T breast
MOLT-4 leukemia = test system: MOLT-4 leukemia
MDA-N = test system: MDA-N
SNB-19 CNS = test system: SNB-19 CNS
MDA-MB-231 breast = test system: MDA-MB-231 breast
HL-60(TB) leukemia = test system: HL-60(TB) leukemia
UO-31 renal = test system: UO-31 renal
PC-3 prostate = test system: PC-3 prostate
SK-OV-3 ovarian = test system: SK-OV-3 ovarian
COLO 205 colon = test system: COLO 205 colon
IGROV1 ovarian = test system: IGROV1 ovarian
SNB-75 CNS = test system: SNB-75 CNS
SF-295 CNS = test system: SF-295 CNS
SF-268 CNS = test system: SF-268 CNS
NCI-H522 lung = test system: NCI-H522 lung
HCT-15 colon = test system: HCT-15 colon
BT-549 breast = test system: BT-549 breast
NCI-H460 lung = test system: NCI-H460 lung
SK-MEL-2 melanoma = test system: SK-MEL-2 melanoma
HT29 colon = test system: HT29 colon
EKVX NSCLC = test system: EKVX NSCLC
MCF7 breast = test system: MCF7 breast
HCC-2998 colon = test system: HCC-2998 colon
SK-MEL-28 melanoma = test system: SK-MEL-28 melanoma
SW-620 colon = test system: SW-620 colon
OVCAR-3 ovarian = test system: OVCAR-3 ovarian
T-47D breast = test system: T-47D breast
ACHN renal = test system: ACHN renal
HCT-116 colon = test system: HCT-116 colon
OVCAR-8 ovarian = test system: OVCAR-8 ovarian
786-0 renal = test system: 786-0 renal
M14 melanoma = test system: M14 melanoma
A549 NSCLC = test system: A549 NSCLC
RXF 393 renal = test system: RXF 393 renal
RPMI-8226 leukemia = test system: RPMI-8226 leukemia
NCI-H23 lung = test system: NCI-H23 lung
CAKI-1 renal = test system: CAKI-1 renal
CCRF-CEM leukemia = test system: CCRF-CEM leukemia
TK-10 renal = test system: TK-10 renal
DU-145 prostate = test system: DU-145 prostate
MDA-MB-435 = test system: MDA-MB-435
A498 renal = test system: A498 renal
HOP-92 NSCLC = test system: HOP-92 NSCLC
OVCAR-5 ovarian = test system: OVCAR-5 ovarian
MALME-3M melanoma = test system: MALME-3M melanoma

O=C1/C(=C/c2cccc([N+](=O)[O-])c2)N=C(c2ccccc2)N1c1ccc2c(c1)Sc1cc(N3C(=O)/C(=C/c4cccc([N+](=O)[O-])c4)N=C3c3ccccc3)ccc1N2
TGI (OVCAR-4 ovarian): 34.5 µM
TGI (UACC-62 melanoma): 31.7 µM
TGI (KM12 colon): > 100 µM
TGI (LOX IMVI melanoma): 74.1 µM
TGI (UACC-257 melanoma): 37.5 µM
TGI (HOP-62 NSCLC): 49.5 µM
TGI (K-562 leukemia): 96.7 µM
TGI (NCI/ADR-RES ovarian): > 100 µM
TGI (U251 CNS): 66.5 µM
TGI (SK-MEL-5 melanoma): 31 µM
TGI (HS 578T breast): > 100 µM
TGI (MOLT-4 leukemia): > 100 µM
TGI (MDA-N): 35 µM
TGI (SNB-19 CNS): 40.2 µM
TGI (MDA-MB-231 breast): 89.8 µM
TGI (HL-60(TB) leukemia): 64.6 µM
TGI (UO-31 renal): > 100 µM
TGI (PC-3 prostate): 52.8 µM
TGI (SK-OV-3 ovarian): 30.9 µM
TGI (COLO 205 colon): > 100 µM
TGI (IGROV1 ovarian): 45.3 µM
TGI (SNB-75 CNS): 34.3 µM
TGI (SF-295 CNS): 32.6 µM
TGI (SF-268 CNS): 40.5 µM
TGI (NCI-H522 lung): 41.9 µM
TGI (HCT-15 colon): > 100 µM
TGI (BT-549 breast): 52.4 µM
TGI (NCI-H460 lung): > 100 µM
TGI (SK-MEL-2 melanoma): 39.9 µM
TGI (HT29 colon): > 100 µM
TGI (EKVX NSCLC): 62.9 µM
TGI (MCF7 breast): 37.9 µM
TGI (HCC-2998 colon): > 100 µM
TGI (SK-MEL-28 melanoma): > 100 µM
TGI (SW-620 colon): > 100 µM
TGI (OVCAR-3 ovarian): 28.4 µM
TGI (T-47D breast): 80 µM
TGI (ACHN renal): > 100 µM
TGI (HCT-116 colon): > 100 µM
TGI (OVCAR-8 ovarian): 78.8 µM
TGI (786-0 renal): 46.3 µM
TGI (M14 melanoma): 87.9 µM
TGI (A549 NSCLC): > 100 µM
TGI (RXF 393 renal): 62.2 µM
TGI (RPMI-8226 leukemia): > 100 µM
TGI (NCI-H23 lung): 92.4 µM
TGI (CAKI-1 renal): 54 µM
TGI (CCRF-CEM leukemia): 55.3 µM
TGI (TK-10 renal): 39.4 µM
TGI (DU-145 prostate): > 100 µM
TGI (MDA-MB-435): 34.5 µM
TGI (A498 renal): 55.1 µM
TGI (HOP-92 NSCLC): 85.2 µM
TGI (OVCAR-5 ovarian): 35.8 µM
TGI (MALME-3M melanoma): 41.1 µM

CCOC(=O)c1cc(C2(OC)CCN(Cc3ccccc3)C2=O)c(-c2cc(C)no2)[nH]1 (configuration not stated)
TGI (OVCAR-4 ovarian): > 100 µM
TGI (UACC-62 melanoma): > 100 µM
TGI (KM12 colon): > 100 µM
TGI (UACC-257 melanoma): > 100 µM
TGI (HOP-62 NSCLC): > 100 µM
TGI (K-562 leukemia): > 100 µM
TGI (NCI/ADR-RES ovarian): > 100 µM
TGI (U251 CNS): > 100 µM
TGI (SK-MEL-5 melanoma): > 100 µM
TGI (HS 578T breast): > 100 µM
TGI (MOLT-4 leukemia): > 100 µM
TGI (MDA-N): > 100 µM
TGI (SNB-19 CNS): > 100 µM
TGI (MDA-MB-231 breast): > 100 µM
TGI (UO-31 renal): > 100 µM
TGI (PC-3 prostate): > 100 µM
TGI (SK-OV-3 ovarian): > 100 µM
TGI (COLO 205 colon): > 100 µM
TGI (IGROV1 ovarian): > 100 µM
TGI (SNB-75 CNS): > 100 µM
TGI (SF-295 CNS): > 100 µM
TGI (SF-268 CNS): > 100 µM
TGI (NCI-H522 lung): > 100 µM
TGI (HCT-15 colon): > 100 µM
TGI (BT-549 breast): > 100 µM
TGI (NCI-H460 lung): > 100 µM
TGI (SK-MEL-2 melanoma): > 100 µM
TGI (HT29 colon): > 100 µM
TGI (EKVX NSCLC): > 100 µM
TGI (MCF7 breast): > 100 µM
TGI (HCC-2998 colon): > 100 µM
TGI (SK-MEL-28 melanoma): > 100 µM
TGI (SW-620 colon): > 100 µM
TGI (OVCAR-3 ovarian): > 100 µM
TGI (T-47D breast): > 100 µM
TGI (ACHN renal): > 100 µM
TGI (HCT-116 colon): > 100 µM
TGI (OVCAR-8 ovarian): > 100 µM
TGI (786-0 renal): > 100 µM
TGI (M14 melanoma): > 100 µM
TGI (A549 NSCLC): > 100 µM
TGI (RXF 393 renal): > 100 µM
TGI (RPMI-8226 leukemia): > 100 µM
TGI (NCI-H23 lung): > 100 µM
TGI (CAKI-1 renal): > 100 µM
TGI (TK-10 renal): > 100 µM
TGI (DU-145 prostate): > 100 µM
TGI (MDA-MB-435): > 100 µM
TGI (A498 renal): > 100 µM
TGI (HOP-92 NSCLC): > 100 µM
TGI (OVCAR-5 ovarian): > 100 µM
TGI (MALME-3M melanoma): > 100 µM
